Results: ChEMBL document CHEMBL1156164, “Synthesis of 26-hydroxy-22-oxocholestanic frameworks from diosgenin and hecogenin and their in vitro antiproliferative and apoptotic activity on human cervical cancer CaSki cells” (Bioorg Med Chem, 2010)
Active and inactive are the calls of the source. No cut-off for these calls is given here.

Columns and labels:
Ca-Ski [1] = assay: Cell cycle arrest in human CaSki cells assessed as DNA accumulation at G1 phase at IC50 after 24 hrs using propidium iodide staining by flow cytometry; assay type: functional, cell-based
[2] = Induction of necrosis of PHA-activated human lymphocytes assessed as LDH accumulation in culture supernatant at IC50 after 72 hrs by INT assay; assay type: cell-based; conditions: lymphocyte
Ca-Ski [3] = assay: Cell cycle arrest in human CaSki cells assessed as DNA accumulation at G2/M phase at IC50 after 24 hrs using propidium iodide staining by flow cytometry; assay type: functional, cell-based
Ca-Ski [4] = assay: Induction of apoptosis in human CaSki cells assessed as fragmentation of genomic DNA at IC50 after 24 hrs by TUNEL assay; assay type: functional, cell-based
PBMC [5] = assay: Effect on enriched human PBMC proliferation assessed as proliferating cells at IC50 after 72 hrs using CSFE labeling by flow cytometry; assay type: functional
Ca-Ski [6] = assay: Effect on human CaSki cell morphology assessed as formation of small spherical cells at IC50 after 24 hrs by microscopy; assay type: functional, cell-based
Ca-Ski [7] = assay: Antiproliferative activity against human CaSki cells after 24 hrs using crystal violet staining by ELISA; assay type: functional, cell-based
Ca-Ski [8] = assay: Cell cycle arrest in human CaSki cells assessed as DNA accumulation at sub G1 phase at IC50 after 24 hrs using propidium iodide staining by flow cytometry; assay type: functional, cell-based
Ca-Ski [9] = assay: Cell cycle arrest in human CaSki cells assessed as DNA accumulation at S phase at IC50 after 24 hrs using propidium iodide staining by flow cytometry; assay type: functional, cell-based
Ca-Ski [10] = assay: Induction of apoptosis in human CaSki cells assessed as chromatin condensation at IC50 after 24 hrs by DAPI staining; assay type: functional, cell-based
[11] = Cytotoxicity against human fibroblast cells at IC50 after 24 hrs by crystal violet staining; assay type: cell-based
Ca-Ski [12] = assay: Induction of necrosis of human CaSki cells assessed as LDH accumulation in culture supernatant at IC50 after 24 hrs by INT assay; assay type: functional
PBMC [13] = assay: Induction of enriched human PBMC proliferation assessed as non-proliferating cells at IC50 after 72 hrs using CSFE labeling by flow cytometry; assay type: functional
Ca-Ski [14] = assay: Induction of apoptosis in human CaSki cells assessed as increase in active caspase-3 expression at IC50 after 24 hrs by immunocytochemistry; assay type: functional, cell-based
Ca-Ski [15] = assay: Induction of apoptosis in human CaSki cells assessed as appearance of apoptotic bodies at IC50 after 24 hrs by DAPI staining; assay type: functional, cell-based
Ca-Ski [16] = assay: Effect on human CaSki cell morphology assessed as formation of non-reflective small inclusion bodies at IC50 after 24 hrs by microscopy; assay type: functional, cell-based
Ca-Ski [17] = assay: Effect on human CaSki cell morphology assessed as formation of large cells at IC50 after 24 hrs by microscopy; assay type: functional, cell-based

SMILES: CC(=O)O[C@H]1CC[C@@]2(C)C(=CC[C@H]3[C@@H]4C[C@H](OC(C)=O)[C@H]([C@H](C)C(=O)CC[C@@H](C)CO)[C@@]4(C)CC[C@@H]32)C1
- Activity (Ca-Ski [1]): Active
- Activity [2]: Not Active
- Activity (Ca-Ski [3]): Active
- Activity (Ca-Ski [4]): inactive
- Activity (PBMC [5]): 76.15%
- Activity (Ca-Ski [6]): Active
- Activity (Ca-Ski [7]): Dose-dependent effect
- IC50 (Ca-Ski [7]): 47.1 µM
- Activity (Ca-Ski [8]): Active
- Activity (Ca-Ski [9]): Active
- Activity (Ca-Ski [10]): Active
- Activity [11]: Not Active
- Activity (Ca-Ski [12]): inactive
- Activity (PBMC [13]): 23.85%
- Activity (Ca-Ski [14]): Active

SMILES: CC(=O)O[C@H]1CC[C@@]2(C)[C@@H](CC[C@@H]3[C@@H]2CC(=O)[C@]2(C)[C@@H]([C@H](C)C(=O)CC[C@@H](C)CO)[C@@H](OC(C)=O)C[C@@H]32)C1
- Activity (Ca-Ski [1]): inactive
- Activity [2]: Not Active
- Activity (Ca-Ski [3]): inactive
- Activity (Ca-Ski [4]): Active
- Activity (Ca-Ski [15]): Active
- Activity (PBMC [5]): 63.68%
- Activity (Ca-Ski [7]): Dose-dependent effect
- IC50 (Ca-Ski [7]): 188 µM
- Activity (Ca-Ski [16]): Active
- Activity (Ca-Ski [8]): Active
- Activity (Ca-Ski [9]): Active
- Activity [11]: 18%
- Activity (Ca-Ski [17]): Active
- Activity (Ca-Ski [12]): 28%
- Activity (PBMC [13]): 36.34%
- Activity (Ca-Ski [14]): Active
